Measured values published in PubChem BioAssay AID435027 (Sanford-Burnham Center for Chemical Genomics, 2010).

Target: Tyrosine-protein phosphatase non-receptor type 22 (Homo sapiens) (UniProt Q9Y2R2)
Test: concentration-dependent PTPN22 LYP inhibition – biochemical, pCAP substrate, fluorescence intensity, dose response (AID 435027)
Conditions: recombinant LYP

Chain of Tyrosine-protein phosphatase non-receptor type 22 (Homo sapiens) (Q9Y2R2 whole entry, looked up): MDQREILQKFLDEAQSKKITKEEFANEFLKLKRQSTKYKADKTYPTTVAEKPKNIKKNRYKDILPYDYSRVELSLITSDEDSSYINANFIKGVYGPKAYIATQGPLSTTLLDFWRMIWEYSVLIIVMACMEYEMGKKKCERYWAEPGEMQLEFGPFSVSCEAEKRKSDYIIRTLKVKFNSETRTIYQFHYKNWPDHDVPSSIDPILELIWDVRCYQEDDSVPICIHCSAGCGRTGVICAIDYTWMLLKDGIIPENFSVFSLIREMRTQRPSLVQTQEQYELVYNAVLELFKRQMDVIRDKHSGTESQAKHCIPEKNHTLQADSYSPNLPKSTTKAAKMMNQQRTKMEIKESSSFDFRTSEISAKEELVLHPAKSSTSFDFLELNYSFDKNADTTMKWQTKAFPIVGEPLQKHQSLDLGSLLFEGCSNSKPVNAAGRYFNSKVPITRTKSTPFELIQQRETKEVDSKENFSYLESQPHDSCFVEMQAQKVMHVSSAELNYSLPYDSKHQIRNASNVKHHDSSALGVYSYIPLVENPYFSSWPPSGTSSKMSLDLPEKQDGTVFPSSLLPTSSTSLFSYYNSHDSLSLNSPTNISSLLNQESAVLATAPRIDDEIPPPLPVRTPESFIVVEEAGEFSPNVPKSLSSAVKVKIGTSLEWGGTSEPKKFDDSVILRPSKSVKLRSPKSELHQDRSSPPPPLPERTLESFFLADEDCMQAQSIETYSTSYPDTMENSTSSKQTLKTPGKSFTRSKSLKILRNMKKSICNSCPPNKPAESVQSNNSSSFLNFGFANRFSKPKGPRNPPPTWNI

Row | SMILES | IC50 [µM]
1 | Cc1ccc(/C=C/c2nc3sc(C(=O)O)c(C)c3c(=O)[nH]2)cc1[N+](=O)[O-] | 4.58
2 | O=C(O)CCCN1C(=O)/C(=C/c2ccc(-c3nc4ccccc4s3)o2)SC1=S | 4.76
